Measured values published in patent publication US20240366644A1, “ANTI-INFLAMMATORY APPLICATION OF GINSENOSIDE RD” (priority 2022, published 2024).

Key:
[1] = test system: mice with acute lung injury; assay: Inflammatory factors (ELISA) in lung tissue and alveolar lavage fluid of mice with LPS acute lung injury; assay type: in vivo, Balb/c mice; details: for IL-1β in alveolar lavage fluid / IL-1β in lung tissue / IL-6 in alveolar lavage fluid / IL-6 in lung tissue / IL-18 in alveolar lavage fluid / IL-18 in lung tissue / TNF-α in alveolar lavage fluid / TNF-α in lung tissue: 24 h after modeling
Procedure: Balb/c male mice, weighing 20-22 g, were randomly divided into five groups according to body weights, with eight mice in each group: a blank control group (propylene glycol-0.5% carboxymethylcellulose sodium), a model group (LPS, 15 mg/kg), a ginsenoside Rd low-dose group (10 mg/kg), a ginsenoside Rd high-dose group (20 mg/kg), and a Dexamethasone group (5 mg/kg). Mice in each group were intraperitoneally injected; after 1 h of administration, except for the blank control group, the mice in each group were intratracheally instilled with 20 μg of LPS for modeling; and the blank control group was intratracheally instilled with an equal volume of PBS.
After 1 h of administration, a mouse ALI model was established; each mouse was intraperitoneally injected with sodium pentobarbital at 30 mg/kg, anesthetized and fixed on an operating table dorsally; skin preparation was carried out on the neck; the skin was incised to expose the trachea; 20 μg of LPS was instilled into the trachea using a microglass syringe; and then the mouse was gently rotated head up on the operating table, such that the instilled liquid was evenly distributed in the mouse lungs, and the skin incision was sutured.
After 24 h of modeling, anesthetized mice were intraperitoneally injected with sodium pentobarbital at 30 mg/kg; lung tissues of the mice were taken and rinsed repeatedly in pre-cooled normal saline; the lung tissues were blood-removed, wiped with filter paper, weighed, and added with normal saline according to a ratio of 1:9 (W:V=1 g:9 ml); a tissue homogenate was prepared with a homogenization machine under an ice water bath; and a supernatant of mouse lung tissue homogenate was taken.
The mouse was anesthetized, and the trachea was separated; the whole lung was lavaged with 0.5 ml of pre-cooled normal saline, stayed for 1 min, and slowly pumped back with a syringe, and this process was repeated three times; and BLAF was collected, and centrifuged for 15 min at 4° C. and 1600 rpm/min.
In strict accordance with the operating instructions of an enzyme-linked immunosorbent assay kit (ELISA), the contents of TNF-α, IL-1β, IL-6 and IL-18 in the supernatant of mouse lung tissue homogenate and the BLAF supernatant were detected.

[2] = test system: Chronic Obstructive Pulmonary Disease in Rats; assay: Serum TNF-α and IL-8 in rats with chronic obstructive pulmonary disease (LPS + smoking); assay type: in vivo, SD rats
Procedure: After adaptive feeding (20-25° C., a humidity of 50-60%) for 1 week, the rats were randomly divided into a blank group, a model group, a positive control group, a ginsenoside Rd high-dose group, and a ginsenoside Rd low-dose group, with ten rats in each group.
Model group: on the Day 1 and Day 14, each rat was intraperitoneally injected with 10% chloral hydrate (300 mg/kg) for anesthesia; the head was fixed in a low position; the glottis was exposed; lipopolysaccharide was quickly injected into the trachea; and the rat was kept upright, and swung left and right for 10-20 s, such that the lipopolysaccharide was evenly distributed in the two lungs. On the Days 2-13, and 15-28, the lungs were smoked in a closed organic glass box for 30 min every day, with 15 cigarettes per day.
Positive control group: the animal was anesthetized, and intratracheally injected with lipopolysaccharide, wherein smoking conditions and time were the same as those of the model group; and after tracheal injection of lipopolysaccharide for two weeks, the animal was administrated with Simvastatin by gavage (2.5 mg/kg), and killed after six weeks, and serum was collected.
In accordance with the instructions, the levels of TNF-α and IL-8 in the serum were detected by enzyme-linked immunosorbent assay. The data was expressed as x±s, p<0.05, which meant that it was statistically significant.

[3] = test system: Chronic Obstructive Pulmonary Disease in Rats; assay: Lung pathomorphology of rats with chronic obstructive pulmonary disease; assay type: in vivo, SD rats
[4] = test system: xylene-induced swelling of mouse ears; assay: Xylene-induced swelling of mouse ears; assay type: in vivo, Kunming mice; details: for Ear mass difference / Swelling degree: 4 h after xylene
Procedure: […] KM mice, weighing 18-22 g, were randomly grouped, with ten mice in each group. The groups include a model group, a positive control group (Indomethacin, 10 mg/kg), a ginsenoside Rd low-dose group (5 mg/kg), and a ginsenoside Rd high-dose group (10 mg/kg). After 30 min of gavage administration of mice (the model group was administrated with the equal volume of 0.5% sodium carboxymethylcellulose by gavage), 0.03 ml of xylene was evenly applied to both sides of the right ear of each mouse in each group to cause inflammations on both sides, and the left ear of the mouse was not applied as a control. After 4 h, the mouse was killed by dislocation of cervical vertebra, the two ears of the mouse were cut off along the auricle, round ear slices of the same size (a diameter of 6 mm) were taken at the same position of the left and right ears and weighed respectively, a mass difference of the two ear slices was used as an ear swelling degree, and a swelling inhibition rate was calculated.

[5] = test system: COVID-19 Delta virus-infected mice; assay: IL-1β and MCP-1 expression (RT-qPCR) in lung homogenates of COVID-19 Delta virus-infected mice; assay type: in vivo, hACE2 transgenic C57BL/6 mice; details: for IL-1β expression level in lung homogenate / MCP-1 expression level in lung homogenate: mRNA, blank group 1.00, Day 5 of infection
[6] = 10 mg/kg intraperitoneal 1 h before LPS
[7] = 20 mg/kg intraperitoneal 1 h before LPS
[8] = 5 mg/kg gavage 30 min before xylene
[9] = 10 mg/kg gavage 30 min before xylene

Structure (SMILES): CC(C)=CCC[C@](C)(O[C@@H]1O[C@H](CO)[C@@H](O)[C@H](O)[C@H]1O)[C@H]1CC[C@]2(C)[C@@H]1[C@H](O)C[C@@H]1[C@@]3(C)CC[C@H](O[C@@H]4O[C@H](CO)[C@@H](O)[C@H](O)[C@H]4O[C@@H]4O[C@H](CO)[C@@H](O)[C@H](O)[C@H]4O)C(C)(C)[C@@H]3CC[C@]12C [Ginsenoside Rd, ginsenoside Rd]
- IL-1β in alveolar lavage fluid [1, 6]: 79.63 ± 21.33 ng/L
- IL-1β in lung tissue [1, 6]: 80.23 ± 18.08 ng/L
- IL-6 in alveolar lavage fluid [1, 6]: 39.37 ± 9.12 ng/L
- IL-6 in lung tissue [1, 6]: 84.70 ± 10.84 ng/L
- IL-18 in alveolar lavage fluid [1, 6]: 81.20 ± 21.27 ng/L
- IL-18 in lung tissue [1, 6]: 94.03 ± 15.22 ng/L
- TNF-α in alveolar lavage fluid [1, 6]: 344.09 ± 61.08 ng/L
- TNF-α in lung tissue [1, 6]: 98.14 ± 14.48 ng/L
- IL-1β in alveolar lavage fluid [1, 7]: 49.51 ± 6.89 ng/L
- IL-1β in lung tissue [1, 7]: 30.52 ± 13.42 ng/L
- IL-6 in alveolar lavage fluid [1, 7]: 29.53 ± 8.99 ng/L
- IL-6 in lung tissue [1, 7]: 36.81 ± 13.45 ng/L
- IL-18 in alveolar lavage fluid [1, 7]: 44.64 ± 17.91 ng/L
- IL-18 in lung tissue [1, 7]: 37.54 ± 15.80 ng/L
- TNF-α in alveolar lavage fluid [1, 7]: 186.04 ± 75.00 ng/L
- TNF-α in lung tissue [1, 7]: 46.88 ± 19.52 ng/L
- contents of TNF-α, IL-1β, IL-6 and IL-18 in the lung tissues and BLAF ([1]; compared with the model group): significantly reduce
- effect on TNF-α, IL-1β, IL-6 and IL-18 contents compared with Dexamethasone ([1]; high-dose group 20 mg/kg, P<0.01): better than that of Dexamethasone
- IL-8 in serum ([2]; high-dose 10 mg/kg): 24.88 ± 14.67
- TNF-α in serum ([2]; high-dose 10 mg/kg): 12.13 ± 17.06
- efficacy on serum inflammatory factors compared with Simvastatin ([2]; high-dose group): considerable to that of Simvastatin
- IL-8 in serum ([2]; low-dose 5 mg/kg): 30.97 ± 13.70
- TNF-α in serum ([2]; low-dose 5 mg/kg): 12.92 ± 10.20
- Epithelial cell necrosis Mild ([3]; 5 mg/kg): 6
- Epithelial cell necrosis Moderate ([3]; 5 mg/kg): 4
- Epithelial cell necrosis Severe ([3]; 5 mg/kg): 0
- Interstitial inflammatory cell infiltration Mild ([3]; 5 mg/kg): 6
- Interstitial inflammatory cell infiltration Moderate ([3]; 5 mg/kg): 4
- Interstitial inflammatory cell infiltration Severe ([3]; 5 mg/kg): 0
- Epithelial cell necrosis Mild ([3]; 10 mg/kg): 7
- Epithelial cell necrosis Moderate ([3]; 10 mg/kg): 3
- Epithelial cell necrosis Severe ([3]; 10 mg/kg): 0
- Interstitial inflammatory cell infiltration Mild ([3]; 10 mg/kg): 7
- Interstitial inflammatory cell infiltration Moderate ([3]; 10 mg/kg): 3
- Interstitial inflammatory cell infiltration Severe ([3]; 10 mg/kg): 0
- lung lesions ([3]; 10 mg/kg and 5 mg/kg, compared with the model group): good improvement effects on lung lesions
- effect on lung lesions compared with the Simvastatin group ([3]; high-dose group 10 mg/kg): considerable to the Simvastatin group
- Ear mass difference [4, 8]: 11.84 ± 1.02 mg
- Swelling degree [4, 8]: 7.56 ± 2.05 (mg) (%)
- ear swelling inhibition rate compared with Indomethacin ([4]; 10 mg/kg): close to that of Indomethacin
- Ear mass difference [4, 9]: 7.68 ± 0.39 mg
- Swelling degree [4, 9]: 6.59 ± 1.96 (mg) (%)
- inhibition at 5 mg/kg ([4]; Mus musculus, po, ear swelling, 5 mg/kg gavage, read-out: Inhibition rate): 30.3%
- inhibition at 10 mg/kg ([4]; Mus musculus, po, ear swelling, 10 mg/kg gavage, read-out: Inhibition rate): 39.3%
- ear swelling of mice caused by xylene ([4]; compared with the model group): significantly inhibit ear swelling
- IL-1β and MCP-1 inflammatory factors ([5]; compared with the virus model group): significantly reduced
- IL-1β expression level in lung homogenate ([5]; 10 mg/kg gavage): 20.88 ± 6.42
- MCP-1 expression level in lung homogenate ([5]; 10 mg/kg gavage): 18.71 ± 13.75
- IL-1β expression level in lung homogenate ([5]; 20 mg/kg gavage): 10.13 ± 6.68
- MCP-1 expression level in lung homogenate ([5]; 20 mg/kg gavage): 7.15 ± 9.36
